Assay results taken from patent US4673562A, “Bisamide bisthiol compounds useful for making technetium radiodiagnostic renal agents” (The Children's Medical Center Corporation, priority 1983, dated 1987).
Several values for one entry are separate records, joined by “and”; a condition that tells them apart may be missing. Equal entries are not always repeated.

Key:
[1] = Gamma camera: % total dose in bladder, 99mTc complexes coinjected with 131I-OIH into normal dogs (Tables I, III); type: in vivo, dog; parameters: Comparison of % total dose in bladder versus 131I-OIH, column headed by drawing 19 (± s.d.): unit not given here; settings: for % Total Dose In Bladder (gamma camera data) / rate of excretion in the urine: normal dogs; for % Total Dose In Bladder (gamma camera data): single animals; for % total dose in bladder at 35 minutes, Average 99mTc (± s.d) / Comparison of % total dose in bladder versus 131I-OIH, column headed by drawing 19 (± s.d.): Table III; for % total dose in bladder at 35 minutes, Average 99mTc (± s.d): average of dogs; for Comparison of % total dose in bladder versus 131I-OIH, column headed by drawing 19 (± s.d.): dogs; for rate of excretion in the urine: versus 131I-OIH
Description: The two fractions collected from the products of synthesis in each case were denoted (XVIA), (XVIB), (XXXIA), and (XXXIB), respectively.
Images were recorded at 1, 5, 10, 15, 20, 25, 30 and 35 minutes after administration. The initial image at one minute was used to collect 750,000 counts. All subsequent images were exposed for the same length of time as this first image, and the number of counts noted. […] In this way, the counts collected in the camera images cound be related to absolute activity levels (mCi or μCi). The animals were then observed until the urine samples were free of ^99m Tc.
The values represent the calculated % total dose in the camera region of interest set over the bladder.

[2] = Average % total dose in urine samples of dogs (Table II); type: in vivo, dog; settings: mean
Excerpt: The diastereomeric ^99m Tc complexes formed by reduction of pertechnetate in the presence of (2-benzoylthioacetyl)- glycyl-(S-benzoyl)-cysteine methyl ester (compound XVI) and N-2-(benzoylthio)ethyl)-N'-1-carbomethoxy-(2-benzoylthio)ethyl]oxamide (compound XXXI) were synthesized and separated by high pressure liquid chromatography. The two fractions collected from the products of synthesis in each case were denoted (XVIA), (XVIB), (XXXIA), and (XXXIB), respectively.
Samples of each fraction were mixed with appropriate amounts of ^131 I-OIH and coinjected into normal dogs placed under a gamma camera. Images were recorded at 1, 5, 10, 15, 20, 25, 30 and 35 minutes after administration. The initial image at one minute was used to collect 750,000 counts. All subsequent images were exposed for the same length of time as this first image, and the number of counts noted. Immediately after each count, a urine sample was drawn from the bladder via a indwelling catheter, and the ^99m Tc ANd ^131 I activity determined using an ionization chamber. In this way, the counts collected in the camera images cound be related to absolute activity levels (mCi or μCi). The animals were then observed until the urine samples were free of ^99m Tc.
In Table II can be seen the average % total dose valus observed in the urine samples collected at each time point. Also quoted in parentheses are the standard deviation and standard error of the mean.

[3] = in vivo; cited from earlier work

SMILES	% Total Dose In Bladder (gamma camera data) ([1]; 5 min post injection, 5 min)	% Total Dose In Bladder (gamma camera data) ([1]; 10 min post injection, 10 min)	% Total Dose In Bladder (gamma camera data) ([1]; 15 min post injection, 15 min)	% Total Dose In Bladder (gamma camera data) ([1]; 20 min post injection, 20 min)	% Total Dose In Bladder (gamma camera data) ([1]; 25 min post injection, 25 min)	% Total Dose In Bladder (gamma camera data) ([1]; 30 min post injection, 30 min)	% Total Dose In Bladder (gamma camera data) ([1]; 35 min post injection, 35 min)	% total dose in bladder at 35 minutes, Average 99mTc (± s.d) ([1]; 35 min)	Comparison of % total dose in bladder versus 131I-OIH, column headed by drawing 19 (± s.d.) ([1]; 35 min)	rate of excretion in the urine [1]	Average % Total Dose in Urine Samples ([2]; 5 min post injection, 5 min)	Average % Total Dose in Urine Samples ([2]; 10 min post injection, 10 min)	Average % Total Dose in Urine Samples ([2]; 15 min post injection, 15 min)	Average % Total Dose in Urine Samples ([2]; 20 min post injection, 20 min)	Average % Total Dose in Urine Samples ([2]; 25 min post injection, 25 min)	Average % Total Dose in Urine Samples ([2]; 30 min post injection, 30 min)	Average % Total Dose in Urine Samples ([2]; 35 min post injection, 35 min)	route of excretion [3]
O=C(O)C1C[S][Tc-]23(=[O])[S]CC[N]2C(=O)C(=O)[N]13 (single isomer, unassigned) [XXXIA]	5.76 % total dose and 4.12 % total dose and 0.81 % total dose	15.30 % total dose and 12.39 % total dose and 9.87 % total dose	22.26 % total dose and 15.99 % total dose and 16.51 % total dose	28.21 % total dose and 21.59 % total dose and 22.50 % total dose	32.68 % total dose and 25.47 % total dose and 27.72 % total dose	38.08 % total dose and 30.43 % total dose and 32.34 % total dose	41.57 % total dose and 31.19 % total dose and 34.90 % total dose	35.89 % total dose	46.80	a significant difference exists between (XXXIA) and (XXXIB)	3.56 % total dose	12.52 % total dose	18.25 % total dose	24.10 % total dose	28.62 % total dose	33.63 % total dose	35.89 % total dose	
O=C(O)C1C[S][Tc-]23(=[O])[S]CC[N]2C(=O)C(=O)[N]13 (single isomer, unassigned) [XXXIB]	15.45 % total dose and 12.59 % total dose and 12.63 % total dose	37.76 % total dose and 28.47 % total dose and 27.98 % total dose	49.26 % total dose and 41.85 % total dose and 35.28 % total dose	61.08 % total dose and 48.71 % total dose and 43.22 % total dose	67.47 % total dose and 55.87 % total dose and 48.35 % total dose	70.23 % total dose and 60.72 % total dose and 50.84 % total dose	69.76 % total dose and 61.09 % total dose and 57.93 % total dose	62.93 % total dose	77.80	a significant difference exists between (XXXIA) and (XXXIB)	13.56 % total dose	31.40 % total dose	42.13 % total dose	51.00 % total dose	57.23 % total dose	60.60 % total dose	62.93 % total dose	
O=C([O-])CN(CCN(CC(=O)[O-])CC(=O)[O-])CCN(CC(=O)[O-])CC(=O)[O-].[99Tc+4] [Compound 99mTc-DTPA]																		excreted exclusively by glomerular filtration
